Earlier results, collected in publication PMC3945118 (Journal of molecular neuroscience : MN, 2013).

System: rotarod performance
Settings: test not specified; no reference given

SMILES: CCCC(CCC)C(=O)O [valproic acid]
- Therapeutic Index (TI) of known anticonvulsant: ~1
